Experimental data reported in patent US20090042963A1 (priority 2005, published 2009).

System: Pyricularia oryzae
Format: cell-based
Conditions: single active compound, Conc. 1 ppm; microtiter plate, malt-based medium, 18° C., measured at 405 nm on day 7 after inoculation

`Fc1ccc(C2(Cn3cncn3)OC2c2ccccc2Cl)cc1` (centres unmarked) [Epoxiconazole, epoxiconazole] was tested. Which “Observed effect (%)” value did it give?
The value was 0%.

Which “Observed effect (%)” value does the source give for `CC(C)(C)C(O)(CCc1ccc(Cl)cc1)Cn1cncn1` (centres unmarked) [Tebuconazole, tebuconazole] here?
The value was 2%.
